Data as given in patent US7928089B2, “Mucoactive agents for treating a pulmonary disease” (Vectura Limited, priority 2003, dated 2011).

Test: Stage 1 heparin dose-response: CF sputum viscoelasticity by magnetic microrheometry
Set-up: species or system human
Conditions: 30 minutes at 37°, 10 rad/s, 10 CF sputum samples; FIG. 3; NAL 309 mcg/mL
Experimental: An experimental programme was conducted to test the mucolytic activity of selected mucoactive agents. The primary objective of this initial protocol is to determine the mucolytic activity (capacity to reduce the viscosity and elasticity and thereby affect clearability) of heparin in cystic fibrosis sputum at concentrations of potential clinical relevance. This constitutes the Stage 1 experiment, below. The secondary objective is to compare heparin with other heparin fractions in a screening test for activity, incorporated in the Stage 2 experiment. […]
The magnetic microrheometer was described by King (King M (1988) “Magnetic microtheometer” Methods in Bronchial Mucology, pp. 73-83.). This instrument is used to measure the bulk viscosity and elasticity of microliter quantities of mucus. […]
When interpreting the results of the studies discussed herein, the primary variable of interest is the decrease in mucus viscoelasticity, expressed as delta log G* (corrected for vehicle treatment). […]
From each of 10 CF sputum samples, up to 6 aliquots of approximately 10-15 mg each were incubated for 30 minutes at 37° with either 0.9% NaCl or with one of the concentrations of heparin, or with N-acetylcysteine L-lysinate (NAL) (309 mcg/mL). Prior to incubation and following it, sputum viscoelasticity at 10 rad/s was determined by magnetic microrheometry. […]

## N-acetylcysteine L-lysinate [NAL]
  mucolytic effect (fractional decrease in G*): effective at a lower concentration compared to heparin
